US9289446B2, “Myocardial perfusion imaging methods and compositions” (GILEAD SCIENCES, INC., priority 2002, dated 2016)

How the values were obtained:
[1] = tested on: blood flow in coronary, mesenteric, hind limb and renal vascular beds; experiment: Example 8: vasodilator effects in different vascular beds (CBF, MBF, LBF, RBF) in awake dogs; format: in vivo; details: CVT-3146 2.5 μg/kg, ADO 250 μg/kg
Procedure: Example 8 employed a pharmaceutical composition consisting of an aqueous composition of 100 micrograms/mL CVT-3146 in 15% (w:v) propylene glycol and 100 mM phosphate buffer at pH 7 with 0.1% EDTA. The formulation was stored in type I glass vials at 5 mL per vial.
In this study the vasodilator effects of CVT-3146 were compared to those of ADO in different vascular beds in awake dogs. Dogs were chronically instrumented for measurements of the blood flow in coronary (CBF), mesenteric (MBF), hind limb (LBF), and renal (RBF) vascular beds, and hemodynamics.

[2] = tested on: heart rate (HR) and blood pressure (BP); experiment: Example 5: heart rate, blood pressure and plasma catecholamines after i.v. bolus in awake rats (sympathoexcitation); format: in vivo; details: in the presence of hexamethonium 10 mg/kg, n=5
Procedure: The present study was carried out to determine whether CVT-3146, a selective A2A adenosine receptor agonist, causes sympathoexcitation.
CVT (0.31 μg/kg-50 μg/kg) was given as a rapid i.v. bolus to awake rats and heart rate (HR) and blood pressure (BP) were monitored. CVT-3146 caused an increase in BP and systolic pressure (SP) at lower doses while at higher doses there was a decrease in BP and SP. […] The increase in HR was evident at the lowest dose of CVT at which there was no appreciable decrease in BP. ZM241385 (30 μg/kg, N=5), an A2A receptor antagonist, attenuated the decrease in BP (CVT-3146: 14±3%, ZM: 1±1%) and the increase in HR (CVT: 27±3%, ZM: 18±3%) caused by CVT-3146. Pretreatment with metoprolol (MET, 1 mg/kg, n=5), a beta-blocker, attenuated the increase in HR (CVT: 27±3%, MET: 15±2%), but had no effect on hypotension caused by CVT-3146. In the presence of hexamethonium (HEX, 10 mg/kg, n=5), a ganglionic blocker, the tachycardia was prevented (CVT: 27±3%, HEX: −1±2%), but BP was further reduced (CVT: −11±2%, HEX: −49±5%).

Row | Compound | duration for CBF above 2-fold of the baseline [1] [s] | change in BP caused by CVT-3146 [2] [%] | increase in HR (tachycardia) caused by CVT-3146 [2] [%]
1 | Nc1ncnc2c1ncn2[C@@H]1O[C@H](CO)[C@@H](O)[C@H]1O [adenosine, reference compound] | 16 ± 3 |  | 
2 | C[N+](C)(C)CCCCCC[N+](C)(C)C [hexamethonium, reference compound] |  | −49±5 | −1±2
